# US7264314B2, “Adrenocorticotropic hormone analogs and related methods” (priority 2004, dated 2007)
# No end group written: not given here.
# What was measured:
# [1] = system: serum corticosterone in dexamethasone-suppressed mice; test: in vivo Serum Corticosteroid Induction Assay; parameters: species or system FVB/N mice; conditions: compared to unmodified mACTH(1–24); 1 μg s.c.; blood one hour after administration
# Description: An in vivo Serum Corticosteroid Induction Assay measures the level of corticosteroid or corticosterone in the blood stream of a subject. More specifically, the in vivo Serum Corticosteroid Induction Assay can include the following steps: first, an agent to suppress endogenous ACTH production was administered to a mouse subject, such as an intraperitoneal injection of dexamethasone; second, after waiting a suitable period of time for suppression of endogenous ACTH production (e.g., 1.5–2.0 hours), a test compound can be administered to the mouse by a suitable method, such as intraperitoneal or subcutaneous injection; and third, after waiting a suitable period of time (e.g., 1 hour) for action of the injected test compound, a blood sample can be taken from the subject and the level of serum corticosterone can be determined by a suitable method, such as a competitive radioimmunoassay using ^125I RIA kit (ICN, Costa Mesa, Calif.). Example 1 describes a murine in vivo Serum Corticosteroid Induction Assay in detail.
# The corticosteroid or corticosterone secretion induced in vivo by an ACTH analog compound was compared to the level of corticosteroid secretion produced by an unmodified ACTH compound by measuring blood serum corticosteroid after administering either the ACTH or ACTH analog as test compounds. […] ACTH analog compositions with decreased function were identified by measuring corticosterone levels using standard radioimmunoassay (RIA) analysis on blood samples collected one hour after administering the mACTH(1–24) or ACTH analog compound to dexamethasone-suppressed mice. In FIG. 1, the potency of various ACTH analog peptides is expressed as per cent induction of corticosterone, with mouse ACTH being 100%. […] The percent of corticosterone induction 12 of ACTH analog Compounds in Samples 2–10 are shown as a percentage of the concentration of serum corticosterone 20 measured for unmodified mACTH(1–24) in the in vivo Serum Corticosteroid Adrenal Induction Assay. The structural modifications and measured percentage reduction in serum measured for Samples 2–10 in FIG. 1 are shown in Table 3 below.
# The in vivo Serum Corticosteroid Induction Assay was performed according the following method. First, two to three month-old male FVB/N mice from our colony, five per group, were injected intraperitoneally with dexamethasone (0.4 mg/0.1 ml PBS per mouse; Sigma, St. Louis, Mo.) to suppress their endogenous ACTH production. See Hajos, G T et al., “Studies of the potency of polypeptides with ACTH action by a new method based on continuous measurement of plasma corticosterone,” Steroids Lipids Res 3:225–228 (1972), Costa, J L, et al., “Mutational analysis of evolutionarily conserved ACTH residues,” Gen Comp Endocrinol, 136:12–16 (2004), and Karpac, J, et al., “Development, Maintenance, and Function of the Adrenal Gland in Early Postnatal Pro-opiomelanocortin Null Mutant Mice,” Endocrinology (2005), published online ahead of print Feb. 24, 2005, all of which are incorporated herein by reference.
# Second, ninety to one hundred twenty minutes later, the dexamethasone-suppressed mice were injected subcutaneously between the shoulder blades with either unmodified mACTH(1–24) or one of several ACTH analog peptide compounds (1 μg/0.1 mL PBS/0.5% BSA), or with vehicle alone (control) (0.1 mL PBS/0.5% BSA). The following ACTH analog peptide compounds were administered to separate mice: 1: murine ACTH1–24; 2: V26F,E30K; 3: P19W,K21E,Y23R; 4: E30K,P36R; 5: ALA19–24; 6: V26F,P36R; 7: P19W, K21E; 8: P19W,K21A,delY23; 9: P19W,K21A; 10: KRRP16-19RMW (AT814) (SEQ ID NO:20).
# Third, one hour later, blood was collected within less than 1 minute from a small incision in the tail, and serum was flash-frozen and stored at −80° C. until assayed. Serum corticosterone was determined by competitive radioimmunoassay (^125I RIA kit; ICN, Costa Mesa, Calif.) according to the manufacturer's recommendations. One microliter of serum was used per assay sample. […]
# [2] = system: corticosterone production by explanted mouse adrenal halves; test: in vitro Serum-free Adrenal Inhibition Assay; type: cell-based
# Description: A series of separate in vitro Serum-Free Adrenal Corticosteroid Inhibition Assay were performed to identify ACTH analogs that inhibit ACTH-induced adrenal hormone production in vitro. The concentration of corticosterone was measured according to the procedure of Example 4 in a serum-free culture medium containing explanted adrenal membrane and unmodified ACTH, AT814 ACTH analog (SEQ ID NO:20), or a combination of ACTH and AT814 at 100 ng/mL each. […] Corticosterone levels were taken at 2.0 hours after the adrenal membrane was placed in the serum free M199 medium, and each corticosterone level in Table 5 is an average of five samples.
# The in vitro Serum-free Adrenal Inhibition Assay was performed according the following method. First, adrenals were removed from mice, dissected free of fat, and cut in half. See Costa, J L, et al., “Mutational analysis of evolutionarily conserved ACTH residues,” Gen Comp Endocrinol. 136:12–16 (2004); and Weber, M M, et al., “Postnatal overexpression of insulin-like growth factor II in transgenic mice is associated with adrenocortical hyperplasia and enhanced steroidogenesis,” Endocrinology 140:1537–1543 (1999), incorporated herein by reference.
# Second, each adrenal half was placed into an individual well of a 4-well dish, one dish per mouse. Adrenal halves were incubated at 5% CO2, 37° C., in 0.5 ml serum-free medium (M199; Invitrogen) for 30 minutes to equilibrate.
# Third, medium was removed and replaced by 0.5 ml M199 containing ACTH, AT814, or both, at 100 ng/ml each; controls had no peptides added.
# Fourth, after 2 hours of incubation, the medium was removed, pooled for all four halves from each mouse, and assayed by corticosterone using standard RIA methods. corticosterone was determined by competitive radioimmunoassay (^125I RIA kit; ICN, Costa Mesa, Calif.) according to the manufacturer's recommendations. One microliter of serum was used per assay sample. Samples were run in duplicates.
substance,measurement,setting,value
N-Ser^1-Tyr-Ser-Met-Glu^5-His-Phe-Arg-Trp-Gly^10-Lys-Pro-Val-Gly-Lys^15-Arg-Ala-Ala-Trp-Val^20-Lys-Val-Tyr-Pro-Ac (SYSMEHFRWGKPVGKRAAWVKVYP; not fully specified (C-terminus); printed as N-Ser1-Tyr-Ser-Met-Glu5-His-Phe-Arg-Trp-Gly10-Lys-Pro-Val-Gly-Lys15-Arg-Ala-Ala-Trp-Val20-Lys-Val-Tyr-Pro-Ac) [AT814],Percent reduction in serum corticosteroid,[1],100%
same,corticosterone induction relative to ACTH (FIG. 4),[2]; AT814 alone,negligible amount of corticosterone induction
same,reduction of corticosterone induction compared to unmodified ACTH alone,[2]; equal amounts of AT814 and unmodified ACTH,about 65%
same,corticosterone level in M199 serum-free medium,"[2]; peptide alone, 100 ng/mL, 2 hours after addition, average of five samples, listed as (KKRRP15-19KRAAW) mACTH(1–24)",about 290 mg/mL
